Paper PMC10499581 (Journal of Ginseng Research, 2023)

Experiments:
[1] = target: T1, PURA (Rattus norvegicus, UniProt A0A8I5YBE8); assay: biolayer interferometry, single concentration; assay type: binding; settings: 30 °C, His-tagged PURA immobilized
T1 sequence (A0A8I5YBE8 1-321): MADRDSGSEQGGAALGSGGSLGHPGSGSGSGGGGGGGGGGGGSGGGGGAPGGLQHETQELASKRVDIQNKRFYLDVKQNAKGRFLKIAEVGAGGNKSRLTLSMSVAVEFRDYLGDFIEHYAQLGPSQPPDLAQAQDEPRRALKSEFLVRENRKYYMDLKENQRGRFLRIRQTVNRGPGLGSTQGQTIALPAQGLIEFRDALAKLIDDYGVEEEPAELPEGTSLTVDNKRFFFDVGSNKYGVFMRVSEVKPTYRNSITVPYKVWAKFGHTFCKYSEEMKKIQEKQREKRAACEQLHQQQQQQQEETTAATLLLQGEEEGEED

[2] = target: T2, Pur-alpha (PURA), wild type, recombinant His-tagged (rat, UniProt A0A8I5YBE8 1-321); assay: BLI
T2 sequence (looked up): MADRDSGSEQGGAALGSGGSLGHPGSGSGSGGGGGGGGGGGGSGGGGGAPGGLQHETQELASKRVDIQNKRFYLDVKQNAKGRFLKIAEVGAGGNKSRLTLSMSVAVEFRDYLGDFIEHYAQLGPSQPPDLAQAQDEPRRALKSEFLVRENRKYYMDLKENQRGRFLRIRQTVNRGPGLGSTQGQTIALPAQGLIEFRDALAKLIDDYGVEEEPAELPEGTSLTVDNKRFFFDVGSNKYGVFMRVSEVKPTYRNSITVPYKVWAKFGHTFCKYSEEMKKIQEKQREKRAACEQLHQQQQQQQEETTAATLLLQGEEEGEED

Row | Molecule | wavelength shift at 300 μM [1] | Kd [2] [nM]
1 | CC(C)=CCC[C@](C)(O[C@@H]1O[C@H](CO)[C@@H](O)[C@H](O)[C@H]1O)[C@H]1CC[C@]2(C)[C@@H]1[C@H](O)C[C@@H]1[C@@]3(C)CC[C@H](O)C(C)(C)[C@@H]3CC[C@]12C [CK] | The direct binding strength of PURA to Rb1,Re, Rh1, Rg1, F1, Rd, Rh2,CK, PPD | –
2 | CC(C)=CCC[C@](C)(O[C@@H]1O[C@H](CO)[C@@H](O)[C@H](O)[C@H]1O)[C@H]1CC[C@]2(C)[C@@H]1[C@H](O)C[C@@H]1[C@@]3(C)CC[C@H](O)C(C)(C)[C@@H]3[C@@H](O)C[C@]12C [F1] | The direct binding strength of PURA to Rb1,Re, Rh1, Rg1, F1, Rd, Rh2,CK, PPD | –
3 | CC(C)=CCC[C@](C)(O)[C@H]1CC[C@]2(C)[C@@H]1[C@H](O)C[C@@H]1[C@@]3(C)CC[C@H](O)C(C)(C)[C@@H]3[C@@H](O[C@@H]3O[C@H](CO)[C@@H](O)[C@H](O)[C@H]3O)C[C@]12C [Rh1] | The direct binding strength of PURA to Rb1,Re, Rh1, Rg1, F1, Rd, Rh2,CK, PPD | –
4 | CC(C)=CCC[C@](C)(O)[C@H]1CC[C@]2(C)[C@@H]1[C@H](O)C[C@@H]1[C@@]3(C)CC[C@H](O[C@@H]4O[C@H](CO)[C@@H](O)[C@H](O)[C@H]4O)C(C)(C)[C@@H]3CC[C@]12C [Rh2] | The direct binding strength of PURA to Rb1,Re, Rh1, Rg1, F1, Rd, Rh2,CK, PPD | –
5 | Pur-beta (PURB) (natural protein, UniProt Q68A21 1-315, looked up) MADGDSGSERGGGGPGSFQPAPRGGGGPGGEQETQELASKRLDIQNKRFYLDVKQNAKGRFLKIAEVGAGGSKSRLTLSMAVAAEFRDSLGDFIEHYAQLGPSSPEQLAAGAEEGGGPRRALKSEFLVRENRKYYLDLKENQRGRFLRIRQTVNRGGGGFGGGPGPGGLQSGQTIALPAQGLIEFRDALAKLIDDYGGEDDELAGGPGGGAGGPGGGLYGELPEGTSITVDSKRFFFDVGCNKYGVFLRVSEVKPSYRNAITVPFKAWGKFGGAFCRYADEMKEIQERQRDKLYERRGGGSGGGDESEGEEVDED | – | 1930
